# Literature values as cited in US20070020249A1, “COMPOSITIONS FOR PREVENTION AND TREATEMENT OF SYMPTOMS OF GASTROINTESTINAL DISTRESS” (priority 2005, published 2007).
# Settings: humans; Auburn University study
substance,measurement,value
oxygen-coordinated chromium polynicotinate,"reduction of LDL cholesterol, average",14%
